Assay results: patent US12643882B2, “Inhibitors of human respiratory syncytial virus and metapneumovirus” (priority 2022, dated 2026)
Where two headings read alike, the source gives them in different places.

Experiments:
RSV-A2-GFP virus = experiment: microbe, parasite or virus in culture; format: cell-based, Human Respiratory Syncytial Virus
Outline: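 IC50 (GFP-expressing cell counts by Acumen imaging) and CC50 (same-well CellTiter-Glo) were obtained by 4-parameter logistic fitting. Compounds were tested in 10-point 3-fold series for 96 h at 37° C, 5% CO2. Thawed Calu-1 ARF cells were infected at MOI 1.2 with GFP-reporter RSV-A2 in 2% FBS DMEM.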

hMPV-GFP virus = experiment: microbe, parasite or virus in culture; format: cell-based, human metapneumovirus
Outline: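 Antiviral IC50 was derived from imaging counts of GFP-expressing cells, with CC50 from a same-well CellTiter-Glo read, both by 4-parameter logistic fitting. VERO cells plus hMPV-GFP (MOI 1.25) were exposed 48 h at 37 °C to 10-point 3-fold compound dilutions (typical final 40,300–2 nM).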

[1] = Calu-1 cells infected with RSV-A2-GFP, 96 hrs, GFP-expressing cells counted, read-out: RSV EC50
[2] = VERO cells infected with hMPV-GFP, 48 hrs, GFP-expressing cells counted, read-out: hMPV EC50

| SMILES | EC50 (RSV-A2-GFP virus; [1]) | EC50 (hMPV-GFP virus; [2]) | EC50 (RSV-A2-GFP virus; human respiratory syncytial virus, Calu-1, 96 h, read-out: RSV EC50, Calu-1 cells infected with RSV-A2-GFP, 96 hrs, GFP-expressing cells counted) | EC50 (hMPV-GFP virus; human metapneumovirus, Vero, 48 h, read-out: hMPV EC50, VERO cells infected with hMPV-GFP, 48 hrs, GFP-expressing cells counted) |
| --- | --- | --- | --- | --- |
| Cc1nn(-c2ncccn2)cc1C(=O)N1C[C@@H]2[C@H](C1)[C@H]2Oc1cc(C(C)(C)N)cc(-c2cc(F)c(F)c(F)c2)n1 [Example 82, ((1R,5S,6s)-6-((4-(2-aminopropan-2-yl)-6-(3,4,5-trifluorophenyl)pyridin-2-yl)oxy)-3-azabicyclo[3.1.0]hexan-3-yl)(3-methyl-1-(pyrimidin-2-yl)-1H-pyrazol-4-yl)methanone] | < 10 nM | 10 to 100 nM | – | – |
| COc1nn(-c2ncccn2)cc1C(=O)N1C[C@@H]2[C@H](C1)[C@H]2Oc1cc(C(C)(C)N)cc(-c2ccc(F)cc2)n1 [Example 62, ((1R,5S,6s)-6-((4-(2-aminopropan-2-yl)-6-(4-fluorophenyl)pyridin-2-yl)oxy)-3-azabicyclo[3.1.0]hexan-3-yl)(3-methoxy-1-(pyrimidin-2-yl)-1H-pyrazol-4-yl)methanone] | – | – | < 10 nM | > 100 nM |
| Cc1ccc(-c2cc(C(C)(C)N)cc(O[C@H]3[C@@H]4CN(C(=O)c5sc(-c6ncccn6)nc5C)C[C@@H]43)n2)cc1C [Example 32, ((1R,5S,6s)-6-((4-(2-aminopropan-2-yl)-6-(3,4-dimethylphenyl)pyridin-2-yl)oxy)-3-azabicyclo[3.1.0]hexan-3-yl)(4-methyl-2-(pyrimidin-2-yl)thiazol-5-yl)methanone] | < 10 nM | > 100 nM | – | – |
